Activity calls are given as the source filed them. The rule behind the calls is not given here.
System: CCRIS mutagenicity, Ames/micronucleus/aberration tests
Test: CCRIS mutagenicity studies
Details: Method: PREINCUBATION
[1] = Test System: AMES SALMONELLA TYPHIMURIUM, Strain/Indicator: TA98, Metabolic Activation: NONE
[2] = Test System: AMES SALMONELLA TYPHIMURIUM, Strain/Indicator: TA100, Metabolic Activation: NONE

`CC[C@H](C)[C@H](NC(=O)[C@@H](NC(=O)[C@H](CCC(=O)O)NC(=O)[C@H](CCSC)NC(=O)[C@H](CC(C)C)NC(=O)[C@H](CCCCN)NC(=O)[C@H](CCCNC(=N)N)NC(=O)[C@H](CC(N)=O)NC(=O)[C@H](CO)NC(=O)[C@H](Cc1c[nH]cn1)NC(=O)[C@H](C)NC(=O)[C@H](CCC(N)=O)NC(=O)[C@H](CCC(N)=O)NC(=O)[C@H](C)NC(=O)[C@H](CC(C)C)NC(=O)[C@H](CCC(N)=O)NC(=O)[C@H](CCC(=O)O)NC(=O)[C@H](C)NC(=O)[C@H](CCCNC(=N)N)NC(=O)[C@H](C)NC(=O)[C@H](CCSC)NC(=O)[C@H](CCC(=O)O)NC(=O)[C@H](CC(C)C)NC(=O)[C@@H](NC(=O)[C@H](CCC(=O)O)NC(=O)[C@H](CCCNC(=N)N)NC(=O)[C@H](CC(C)C)NC(=O)[C@H](CC(C)C)NC(=O)[C@H](Cc1c[nH]cn1)NC(=O)[C@H](Cc1ccccc1)NC(=O)[C@@H](NC(=O)[C@H](CC(C)C)NC(=O)[C@H](CC(=O)O)NC(=O)[C@H](CC(C)C)NC(=O)[C@H](CO)NC(=O)[C@@H](NC(=O)[C@@H]1CCCN1C(=O)[C@@H]1CCCN1C(=O)[C@H](CCC(=O)O)NC(=O)[C@H](CCC(=O)O)NC(=O)[C@@H](N)CO)[C@@H](C)CC)[C@@H](C)O)C(C)C)[C@@H](C)CC)C(N)=O` was tested, and the mutagenic call [1] was “inactive; negative”, the mutagenic call (Test System: AMES SALMONELLA TYPHIMURIUM, Strain/Indicator: TA98, Metabolic Activation: RAT, LIVER, S-9, PHENOBARBITAL AND 5,6-BENZOFLAVONE) was “inactive; negative” and the mutagenic call [2] was “inactive; negative”. The mutagenic call (Test System: AMES SALMONELLA TYPHIMURIUM, Strain/Indicator: TA100, Metabolic Activation: RAT, LIVER, S-9, PHENOBARBITAL AND 5,6-BENZOFLAVONE) was “inactive; negative”, the mutagenic call (Test System: AMES SALMONELLA TYPHIMURIUM, Strain/Indicator: TA1535, Metabolic Activation: NONE) was “inactive; negative” and the mutagenic call (Test System: AMES SALMONELLA TYPHIMURIUM, Strain/Indicator: TA1535, Metabolic Activation: RAT, LIVER, S-9, PHENOBARBITAL AND 5,6-BENZOFLAVONE) was “inactive; negative”. The mutagenic call (Test System: AMES SALMONELLA TYPHIMURIUM, Strain/Indicator: TA1537, Metabolic Activation: NONE) was “inactive; negative”, the mutagenic call (Test System: AMES SALMONELLA TYPHIMURIUM, Strain/Indicator: TA1537, Metabolic Activation: RAT, LIVER, S-9, PHENOBARBITAL AND 5,6-BENZOFLAVONE) was “inactive; negative” and the mutagenic call (Test System: E. COLI, Strain/Indicator: WP2 UVRA, Metabolic Activation: NONE) was “inactive; negative”. The mutagenic call (Test System: E. COLI, Strain/Indicator: WP2 UVRA, Metabolic Activation: RAT, LIVER, S-9, PHENOBARBITAL AND 5,6-BENZOFLAVONE) was “inactive; negative”.
In the case of `O=C(Cl)c1ccccc1C(=O)Cl`, the mutagenic call [1] is reported as “active; positive”, the mutagenic call (Test System: AMES SALMONELLA TYPHIMURIUM, Strain/Indicator: TA98, Metabolic Activation: RAT LIVER S-9, PCB) is reported as “active; positive” and the mutagenic call [2] is reported as “active; positive”. For the same molecule, the mutagenic call (Test System: AMES SALMONELLA TYPHIMURIUM, Strain/Indicator: TA100, Metabolic Activation: RAT LIVER S-9, PCB) was “active; positive”, the mutagenic call (Test System: AMES SALMONELLA TYPHIMURIUM, Strain/Indicator: TA104, Metabolic Activation: NONE) was “active; positive” and the mutagenic call (Test System: AMES SALMONELLA TYPHIMURIUM, Strain/Indicator: TA104, Metabolic Activation: RAT LIVER S-9, PCB) was “active; positive”. For the same molecule, the mutagenic call (Test System: E.COLI, Strain/Indicator: WP2 UVRA, Metabolic Activation: NONE) was “active; positive” and the mutagenic call (Test System: E.COLI, Strain/Indicator: WP2 UVRA, Metabolic Activation: RAT LIVER S-9, PCB) was “active; positive”.

Reference: PubChem BioAssay AID1259407 (Chemical Carcinogenesis Research Information System (CCRIS), 2018)
